Source: US7659245B2, “Macrocylic inhibitors of hepatitis C virus” (Tibotec Pharmaceuticals Ltd, priority 2005, dated 2010)

Legend:
[1] = system: HCV replicons (Huh-7 luc/neo cells, NS3-NS5B regions of HCV type 1b); test: Replicon assay: inhibition of HCV RNA replication in Huh-Luc cells (luciferase read-out); assay type: cell-based; conditions: HCV type 1b replicon, luciferase activity after three days
Procedure: The in vitro antiviral activity against HCV of the compounds of formula (I) was tested in a cellular HCV replicon system based on Lohmann et al. (1999) Science 285:110-113, with the further modifications described by Krieger et al. (2001) Journal of Virology 75: 4614-4624 (incorporated herein by reference), which is further exemplified in the examples section. This model, while not a complete infection model for HCV, is widely accepted as the most robust and efficient model of autonomous HCV RNA replication currently available. […] It will be appreciated that it is important to distinguish between compounds that specifically interfere with HCV functions from those that exert cytotoxic or cytostatic effects in the HCV replicon model, and as a consequence cause a decrease in HCV RNA or linked reporter enzyme concentration. Assays are known in the field for the evaluation of cellular cytotoxicity based for example on the activity of mitochondrial enzymes using fluorogenic redox dyes such as resazurin. Furthermore, cellular counter screens exist for the evaluation of non-selective inhibition of linked reporter gene activity, such as firefly luciferase. Appropriate cell types can be equipped by stable transfection with a luciferase reporter gene whose expression is dependent on a constitutively active gene promoter, and such cells can be used as a counter-screen to eliminate non-selective inhibitors.
The compounds of formula (I) were examined for activity in the inhibition of HCV RNA replication in a cellular assay. […] The cellular assay was based on a bicistronic expression construct, as described by Lohmann et al. (1999) Science vol. 285 pp. 110-113 with modifications described by Krieger et al. (2001) Journal of Virology 75: 4614-4624, in a multi-target screening strategy. In essence, the method was as follows.
The assay utilized the stably transfected cell line Huh-7 luc/neo (hereafter referred to as Huh-Luc). This cell line harbors an RNA encoding a bicistronic expression construct comprising the wild type NS3-NS5B regions of HCV type 1b translated from an Internal Ribosome Entry Site (IRES) from encephalomyocarditis virus (EMCV), preceded by a reporter portion (FfL-luciferase), and a selectable marker portion (neo^R, neomycine phosphotransferase). The construct is bordered by 5′ and 3′ NTRs (non-translated regions) from HCV type 1b. Continued culture of the replicon cells in the presence of G418 (neo^R) is dependent on the replication of the HCV RNA. The stably transfected replicon cells that express HCV RNA, which replicates autonomously and to high levels, encoding inter alia luciferase, are used for screening the antiviral compounds.
The replicon cells were plated in 384 well plates in the presence of the test and control compounds which were added in various concentrations. Following an incubation of three days, HCV replication was measured by assaying luciferase activity (using standard luciferase assay substrates and reagents and a Perkin Elmer ViewLux™ ultraHTS microplate imager). Replicon cells in the control cultures have high luciferase expression in the absence of any inhibitor. The inhibitory activity of the compound on luciferase activity was monitored on the Huh-Luc cells, enabling a dose-response curve for each test compound. EC50 values were then calculated, which value represents the amount of the compound required to decrease by 50% the level of detected luciferase activity, or more specifically, the ability of the genetically linked HCV replicon RNA to replicate.

[2] = target: full-length hepatitis C NS3 protease enzyme (HCV NS3/4A protease complexes) (Hepatitis C virus genotype 1a, UniProt P27958); test: Inhibition assay (enzymatic assay) of HCV NS3/4A protease; assay type: biochemical; conditions: enzyme 1 nM, 25 μM NS4A cofactor, 0.5 μM depsipeptide substrate, 30° C., competitive model
Procedure: The aim of this in vitro assay is to measure the inhibition of HCV NS3/4A protease complexes by the compounds of the present invention. This assay provides an indication of how effective compounds of the present invention would be in inhibiting HCV NS3/4A proteolytic activity.
The inhibition of full-length hepatitis C NS3 protease enzyme was measured essentially as described in Poliakov, 2002 Prot Expression & Purification 25 363 371. Briefly, the hydrolysis of a depsipeptide substrate, Ac-DED(Edans)EEAbuψ[COO]ASK(Dabcyl)-NH2 (AnaSpec, San José, USA), was measured spectrofluorometrically in the presence of a peptide cofactor, KKGSVVIVGRIVLSGK (Åke Engström, Department of Medical Biochemistry and Microbiology, Uppsala University, Sweden). [Landro, 1997 #Biochem 36 9340-9348]. The enzyme (1 nM) was incubated in 50 mM HEPES, pH 7.5, 10 mM DTT, 40% glycerol, 0.1% n-octyl-D-glucoside, with 25 μM NS4A cofactor and inhibitor at 30° C. for 10 min, whereupon the reaction was initiated by addition of 0.5 μM substrate. Inhibitors were dissolved in DMSO, sonicated for 30 sec. and vortexed. The solutions were stored at −20° C. between measurements.
The final concentration of DMSO in the assay sample was adjusted to 3.3%. The rate of hydrolysis was corrected for inner filter effects according to published procedures. [Liu, 1999 Analytical Biochemistry 267 331-335]. Ki values were estimated by non-linear regression analysis (GraFit, Erithacus Software, Staines, MX, UK), using a model for competitive inhibition and a fixed value for Km (0.15 μM). A minimum of two replicates was performed for all measurements.

Sequence of full-length hepatitis C NS3 protease enzyme (HCV NS3/4A protease complexes) (P27958 1027-1657, one chain of several): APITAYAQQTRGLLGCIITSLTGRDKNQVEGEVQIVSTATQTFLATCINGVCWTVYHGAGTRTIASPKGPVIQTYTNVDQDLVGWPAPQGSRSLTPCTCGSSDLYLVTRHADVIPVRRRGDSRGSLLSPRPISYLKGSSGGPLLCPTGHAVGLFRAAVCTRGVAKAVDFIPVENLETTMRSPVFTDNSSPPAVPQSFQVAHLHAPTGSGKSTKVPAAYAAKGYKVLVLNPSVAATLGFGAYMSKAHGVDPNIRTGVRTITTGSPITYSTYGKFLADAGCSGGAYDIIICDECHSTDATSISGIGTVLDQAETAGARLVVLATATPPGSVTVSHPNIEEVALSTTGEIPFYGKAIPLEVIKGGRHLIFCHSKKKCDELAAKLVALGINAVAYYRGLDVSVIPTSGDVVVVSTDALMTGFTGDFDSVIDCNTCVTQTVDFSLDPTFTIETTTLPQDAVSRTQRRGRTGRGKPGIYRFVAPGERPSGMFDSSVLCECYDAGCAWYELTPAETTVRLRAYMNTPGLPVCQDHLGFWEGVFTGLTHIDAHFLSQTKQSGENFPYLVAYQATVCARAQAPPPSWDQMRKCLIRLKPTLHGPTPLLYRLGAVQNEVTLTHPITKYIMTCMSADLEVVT

Compound	EC50 ([1]; Hepatitis C virus, Huh-7, 72 h)	Ki [2]	EC50 [1]
COc1ccc(-c2nc(O[C@@H]3C[C@H]4C(=O)N[C@]5(C(=O)NS(=O)(=O)C6CC6)C[C@H]5/C=C\CCCCN(C)C(=O)[C@@H]4C3)c3ccc(OC)c(C)c3n2)cc1 [Compound 138, Cyclopropanesulfonic acid {17-[7-methoxy-2-(4-methoxy-phenyl)-8-methyl-quinazolin-4-yloxy]-13-methyl-2,14-dioxo-3,13-diaza-tricyclo[13.3.0.0*4,6*]octadec-7-ene-4-carbonyl}-amide]	0.5 to 199 nM	0.1 to 4.9 nM	–
COc1ccc2c(O[C@@H]3C[C@H]4C(=O)NC5(C(=O)NS(=O)(=O)C6CC6)C[C@H]5/C=C\CCCCN(C)C(=O)N4C3)nc(-c3ccc(F)cc3)nc2c1C (stereo partly shown) [Compound 98, Cyclopropanesulfonic acid {17-[2-(4-fluoro-phenyl-(7-methoxy-8-methyl-quinazolin-4-yloxy)-13-methyl-2,14-dioxo-3,13,15-triaza-tricyclo[13.3.0.0*4,6*]octadec-7-ene-4-carbonyl}-amide]	0.5 to 199 nM	0.1 to 4.9 nM	–
COc1ccc2c(O[C@@H]3C[C@H]4C(=O)N[C@]5(C(=O)NS(=O)(=O)C6CC6)C[C@H]5/C=C\CCCCN(C)C(=O)N4C3)nc(-c3ccccc3)nc2c1C [Compound 94, Cyclopropanesulfonic acid [17-(7-methoxy-8-methyl-2-phenyl-quinazolin-4-yloxy)-13-methyl-2,14-dioxo-3,13,15-triaza-tricyclo[13.3.0.0*4,6*]octadec-7-ene-4-carbonyl]-amide]	0.5 to 199 nM	0.1 to 4.9 nM	–
COc1ccc2c(O[C@@H]3C[C@H]4C(=O)N[C@]5(C(=O)NS(=O)(=O)C(C)C)C[C@H]5/C=C\CCCCN(C)C(=O)[C@@H]4C3)nc(-c3cccc(F)c3)nc2c1C [Compound 162, Propane-2-sulfonic acid {17-[2-(3-fluoro-phenyl)-7-methoxy-8-methyl-quinazolin-4-yloxy]-13-methyl-2,14-dioxo-3,13-diazatricyclo[13.3.0.0*4,6*]octadec-7-ene-4-carbonyl}-amide]	200 to 990 nM	0.1 to 4.9 nM	–
CC(C)Nc1nc(O[C@@H]2C[C@H]3C(=O)N[C@]4(C(=O)NS(=O)(=O)C5CC5)C[C@H]4/C=C\CCCCN(C)C(=O)[C@@H]3C2)c2ccccc2n1 [Compound 71, Cyclopropanesulfonic acid [17-(2-isopropylamino-quinazolin-4-yloxy)-13-methyl-2,14-dioxo-3,13-diaza-tricyclo[13.3.0.0*4,6*]octadec-7-ene-4-carbonyl]-amide]	200 to 990 nM	0.1 to 4.9 nM	–
COc1ccc2c(O[C@@H]3C[C@H]4C(=O)N[C@]5(C(=O)NS(=O)(=O)C6CC6)C[C@H]5/C=C\CCCCCNC(=O)N4C3)nc(-c3ccc(F)cc3)nc2c1C [Compound 104, Cyclopropanesulfonic acid {18-[2-(4-fluoro-phenyl)-7-methoxy-8-methyl-quinazolin-4-yloxy]-2,15-dioxo-3,14,16-triaza-tricyclo[14.3.0.0*4,6*]nonadec-7-ene-4-carbonyl}-amide]	0.5 to 199 nM	0.1 to 4.9 nM	–
CN1CCCC/C=C\[C@@H]2C[C@@]2(C(=O)NS(=O)(=O)C2CC2)NC(=O)[C@@H]2C[C@@H](Oc3nc(-c4ccc(C#N)cc4)nc4ccccc34)C[C@H]2C1=O [Compound 73, Cyclopropanesulfonic acid {17-[2-(4-cyano-phenyl)-quinazolin-4-yloxy]-13-methyl-2,14-dioxo-3,13-diaza-tricyclo[13.3.0.0*4,6*]octadec-7-ene-4-carbonyl}-amide]	> 10000 nM	100 to 1000 nM	–
Cyclopropanesulfonic acid {13-methyl-2,14-dioxo-17-[2-(5H-pyrazol-1-yl)-quinazolin-4-yloxy]-3,13-diaza-tricyclo[13.3.0.0*4,6*]octadec-7-ene-4-carbonyl-amide [Compound 70]	–	> 1000 nM	> 10000 nM
COc1ccc(-c2nc(O[C@@H]3C[C@H]4C(=O)N[C@]5(C(=O)NS(=O)(=O)C6CC6)C[C@H]5/C=C\CCCCN(C)C(=O)N4C3)c3ccc(OC)c(C)c3n2)cc1 [Compound 131, Cyclopropanesulfonic acid {17-[7-methoxy-2-(4-methoxy-phenyl)-8-methyl-quinazolin-4-yloxy]-13-methyl-2,14-dioxo-3,13,15-triaza-tricyclo[13.3.0.0*4,6*]-octadec-7-ene-4-carbonyl}-amide]	0.5 to 199 nM	0.1 to 4.9 nM	–
COc1ccc2c(O[C@H]3CC4C(=O)N(C)CCCC/C=C\[C@@H]5C[C@@]5(C(=O)NS(=O)(=O)C5CC5)NC(=O)[C@@H]4C3)nc(-c3ccc(F)cc3)nc2c1C (stereo partly shown) [Compound 154]	0.5 to 199 nM	0.1 to 4.9 nM	–
COc1ccc2c(O[C@@H]3C[C@H]4C(=O)N[C@]5(C(=O)NS(=O)(=O)C6CC6)C[C@H]5/C=C\CCCCN(C)C(=O)N4C3)nc(-c3cccc(C)n3)nc2c1C [Compound 119, Cyclopropanesulfonic acid {17-[7-methoxy-8-methyl-2-(6-methyl-pyridin-2-yl)-quinazolin-4-yloxy]-13-methyl-2,14-dioxo-3,13,15-triazatricyclo[13.3.0.0*4,6*]octadec-7-ene-4-carbonyl}-amide]	0.5 to 199 nM	0.1 to 4.9 nM	–
COc1ccc2c(O[C@@H]3C[C@H]4C(=O)N[C@]5(C(=O)NS(=O)(=O)C6CC6)C[C@H]5/C=C\CCCCN(C)C(=O)N4C3)nc(-c3ccccc3)nc2c1 [Compound 53, Cyclopropanesulfonic acid [17-(7-methoxy-2-phenyl-quinazolin-4-yloxy)-13-methyl-2,14-dioxo-3,13,15-triaza-tricyclo[13.3.0.0*4,6*]octadec-7-ene-4-carbonyl]-amide]	0.5 to 199 nM	0.1 to 4.9 nM	–
COc1ccc2c(O[C@@H]3C[C@H]4C(=O)N[C@]5(C(=O)NS(=O)(=O)C6CC6)C[C@H]5/C=C\CCCCN(C)C(=O)[C@@H]4C3)nc(-c3nc(C(C)C)cs3)nc2c1 [Compound 45, Cyclopropanesulfonic acid {17-[2-(4-isopropyl-thiazol-2-yl)-7-methoxy-quinazolin-4-yloxy]-13-methyl-2,14-dioxo-3,13-diaza-tricyclo[13.3.0.0*4,6*]octadec-7-ene-4-carbonyl}-amide]	0.5 to 199 nM	0.1 to 4.9 nM	–
COc1ccc2c(O[C@@H]3C[C@H]4C(=O)N[C@]5(C(=O)NS(=O)(=O)C6CC6)C[C@H]5/C=C\CCCCN(C)C(=O)[C@@H]4C3)nc(-c3cc(F)cc(F)c3)nc2c1C [Compound 170, Cyclopropanesulfonic acid {17-[2-(3,5-difluoro-phenyl)-7-methoxy-8-methyl-quinazolin-4-yloxy]-13-methyl-2,14-dioxo-3,13-diaza-tricyclo[13.3.0.0*4,6*]octadec-7-ene-4-carbonyl}-amide]	0.5 to 199 nM	5 to 99.9 nM	–
